The subject of one data set is BoNT/A. The settings on record: cited from earlier work.
A further data set relates to leg muscle paralysis. Also on record: species or system KM mice. The settings on record: mouse, in vivo.
For data set [1] the following is noted: in vivo; cited from earlier work.
For a further data set, the target named is BoNT/A LC (1–448 aa) (Clostridium botulinum, UniProt P0DPI0). In kind it is biochemical.
Data set [2] has as its target Clostridium botulinum neurotoxin type A light chain (1-448 aa) (Clostridium botulinum) (UniProt P0DPI0). As to the kind of experiment: enzyme inhibition kinetics (HPLC of substrate and products).

Peptide text beside a SMILES is read from it.

Chain of BoNT/A LC (1–448 aa) (P0DPI0 1-448 limits assumed): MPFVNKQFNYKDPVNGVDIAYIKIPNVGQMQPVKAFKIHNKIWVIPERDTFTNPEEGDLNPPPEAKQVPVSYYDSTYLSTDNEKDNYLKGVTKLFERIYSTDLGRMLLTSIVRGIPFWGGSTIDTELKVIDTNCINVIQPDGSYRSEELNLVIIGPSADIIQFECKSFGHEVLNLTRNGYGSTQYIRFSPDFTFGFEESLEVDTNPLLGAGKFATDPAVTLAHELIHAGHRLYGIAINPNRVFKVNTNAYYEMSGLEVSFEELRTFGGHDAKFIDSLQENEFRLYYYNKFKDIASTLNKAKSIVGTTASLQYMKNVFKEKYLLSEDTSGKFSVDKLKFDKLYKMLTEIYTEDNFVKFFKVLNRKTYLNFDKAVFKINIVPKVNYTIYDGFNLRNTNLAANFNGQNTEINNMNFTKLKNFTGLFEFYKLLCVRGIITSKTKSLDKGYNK
Chain of Clostridium botulinum neurotoxin type A light chain (1-448 aa) (Clostridium botulinum) (P0DPI0 1-448): as the sequence (P0DPI0 1-448 limits assumed) above

On to `N=C(N)NCCC[C@H](NC(=O)[C@@H](N)CCCNC(=N)N)C(=O)NCC(=O)N[C@@H](Cc1c[nH]c2ccccc12)C(=O)O` [RRGW] (H-RRGW-OH), for which the “cytotoxicity (cell viability)” value with SH-SY5Y cells and with Neuro-2A (N2A) cells was “no cytotoxicity” each time.

For CRGC, in the data set with BoNT/A, the “cell-based activity, in words” value is “higher activity than RRGC in cell-based experiments”.

Take “Clostridium botulinum neurotoxin type A [BoNT/A]”: the “DAS (digit abduction score)” value with leg muscle paralysis was 3–4. Also, in data set [1], the “nonserious cases following cosmetic use” value was 995 cases, the “nonserious cases following therapeutic use” value is reported as 189 cases, the “serious cases following cosmetic use” value is 36 cases and the “serious cases following therapeutic use” value was 217 cases.

As for RHGW, the “inhibitory effect on BoNT/A LC proteolytic activity (SNAP-25 cleavage), in words” value at BoNT/A LC (1–448 aa) was “RRGW showed a better inhibitory effect on BoNT/A proteolytic activity than RRGC, RRGL and RHGW”.

With RRGL, on BoNT/A LC (1–448 aa), the “inhibitory effect on BoNT/A LC proteolytic activity (SNAP-25 cleavage), in words” value is listed as “RRGW showed a better inhibitory effect on BoNT/A proteolytic activity than RRGC, RRGL”.

Turning to RRGW tetrapeptide, the Ki in data set [2] is 790 nM. That is a sub-micromolar value.

These data come from paper PMC10150623 (Journal of Enzyme Inhibition and Medicinal Chemistry, 2023).
